Test [1] has as its system gut microbiota. The experiment in a line: 16S rRNA gene sequencing of mouse feces (microbiome profiling). Format: in vivo, mice. The procedure:
(§1) Genomic DNA extraction from mouse feces. Total genomic DNA from fecal pellets was extracted using ZymoBIOMICS DNA Miniprep Kit (Zymo Research Corporation) and immediately stored at -80° C. This protocol involves a bead beating step to ensure full recovery of bacterial DNA. DNA concentration and quality were measured using the Nanodrop ND-1000 (ThermoFisher).
16S rRNA gene sequence processing and analysis mouse feces samples. Isolated DNA was analyzed using 16S ribosomal RNA (rRNA) gene sequence to investigate the microbial composition in fecal samples. The V3—V4 region of the 16S rDNA gene was amplified by PCR using primers Bakt_341F (5′-CCTACGGGNGGCWGCAG-3′, SEQ ID NO:5) and Bakt_805R (5′-[…]-3′, SEQ ID NO:6) adapted to incorporate the transposon-based Illumina Nextera adapters (Illumina) and a sample barcode sequence allowing multiplexed paired-end sequencing. PCR mixtures contained 1× Q5 buffer (NEB), 1× Q5 Enhancer (NEB), 200 μM dNTP (VWR International), 0.2 μM of forward and reverse primer (Integrated DNA Technologies), 1 unit of Q5 (NEB) and 1 μl of template DNA in a 50 μl reaction. The PCR cycling conditions consisted of an initial denaturation of 30 sec at 98° C., followed by a first set of 15 cycles (98° C. for 10 sec, 55° C. for 30 sec and 72° C. for 30 sec), then by a second step of 15 cycles (98° C. for 10 sec, 65° C. for 30 sec and 72° C. for 30 sec) and final elongation of 2 min at 72° C. before cooling to 4° C. indefinitely. PCR products were purified using 35 pl of magnetic beads (AxyPrep Mag PCR Clean up kit; Axygen Biosciences) per 50 μl PCR reaction. Amplifications were controlled on a Bioanalyzer 2100 using DNA 7500 chips (Agilent Technologies). Samples were pooled at an equimolar ratio; the pool was repurified as described before and checked for quality on a Bioanalyzer 2100 using a DNA high sensitivity chip. The pool was quantified using picogreen (Life Technologies) and loaded on a MiSeq system (Illumina). High-throughput sequencing was performed at the IBIS (Institut de Biologie Integrative et des Systèmes—Université Laval).
Gene sequence processing and analysis was performed using R v4.0.0. DADA2R package v1.16.0 (Callahan et al., Nat Methods. 2016 July; 13(7):581-3) was used to generate exact amplicon sequence variants (ASV) of each sample from raw amplicon sequences. Sequences were corrected for Illumina amplicon sequence errors, de-replicated, chimera removed, and merged of paired-end reads with 260-bases for forward reads and 190-bases for reverse reads. The taxonomy assignment was performed against the SILVA reference database v138 (Quast et al., Nucleic Acids Res. 2013 January; 41(Database issue):D590-6). Archea and Eukaryota residual sequences were removed. Downstream analyses were performed at the genus-level through phyloseq R package v1.32.0 (McMurdie et al., PLoS One. 2013 Apr 22;8(4):e61217). The alpha-diversity was estimated with the Shannon diversity index and the Inverse Simpson index. These indexes were compared between groups using Mann-Whitney tests.
Statistical analysis. Statistical analysis was performed using R v4.0.0. The Mann-Whitney U test was used to determine significant differences among the different groups using alpha-diversity which show the diversity in each individual sample measures. DESeq2 (Love et al., Genome Biol. 2014;15(12):550) was used to perform differential abundances analysis at the genus-level. […]

Test [2] deals with Ruminococcaceae. Put plainly: qRT-PCR with Ruminococcaceae-specific primers on mouse feces. It counts as in vivo, mice. Particulars: 6 days of oral gavage, vs water. As to the method:
FIG. 9J is a graph showing the effect of castalagin treatment (0 mg/kg, 1/4×, 0.21 mg/kg, 1×, 0.85 mg/kg, and 3×, 2.55 mg/kg) on the amount of Ruminococcaceae in the feces. Real-time PCR was performed on DNA extracted from mouse stools after 6 days of oral gavage with water or castalagin at 0.21 mg/kg, 0.85 mg/kg and 2.55 mg/kg using specific primers for Ruminococcaceae detection in MCA-205-bearing, SPF-reared mice (n=5). *p<0.05, **p<0.01.
FIG. 13 is a graph depicting the results of qPCR assays performed on DNA extracted from mouse stools after 6 days of oral gavage with water or castalagin at 0.85 mg/kg using specific primers for Ruminococcaceae detection in MCA-205—bearing, SPF-reared mice (n=10). *p<0.05,
as §1
Quantitative real-time PCR (qRT-PCR). Quantitative real-time PCR was performed to evaluate the relative levels of the total bacterial DNA and the V6 region of the 16S rRNA gene was amplified using the primer set 891F (5′-[…]-3′, SEQ ID NO:1) and 1033R (5′-TGCGGGACTTAACCCAACA-3′, SEQ ID NO:2) (Anhê et al. Diabetologia. 2018 April; 61(4):919-931) and specifically to evaluate the relative levels of the Ruminococcaceae DNA using the specific primers F (5′-[…]-3′, SEQ ID NO:3) and R (5′-[…]-3′, SEQ ID NO:4) (Garcia-Mazcorro JF et al FEMS Microbiol Ecol 2012; 80(3):624-36). DNA (400ng/well) extracted was combined with 500 nM of the above described primer mix and 1× qPCRBIO SyGreen blue Mix Hi-ROX (PCRBIOSystems). The qPCR reaction was performed on the Applied Biosystems StepOnePlus Real-Time PCR System (ThermoFisher Scientific) at 95° C. for 3min to denature DNA, with amplification proceeding for 40 cycles at 95° C. for 5s, 60° C. for 30 s, and completed with a melt curve stage. Raw threshold cycle (Ct) values were compared to a bacterial standard curve produced with Escherichia coli DNA for the 16s analysis and with Ruminoccocus bicirculans for the Rumniccocaceae analysis for approximation of bacterial load.

As to `O=C1OC[C@H]2OC(=O)c3cc(O)c(O)c(O)c3-c3c(O)c(O)c(O)c4c3C(=O)O[C@H]([C@H]3OC(=O)c5c-4c(O)c(O)c(O)c5[C@@H]3O)[C@@H]2OC(=O)c2cc(O)c(O)c(O)c2-c2c1cc(O)c(O)c2O` [castalagin, Castalagin], in test [1] (MCA-205 model, SPF mice, castalagin or water gavage), the “beta-diversity (Bray-Curtis)” value is reported as “significant clusters formation observed with beta-diversity”. Further, the “differential abundance, taxa enriched” value in test [1] (MCA-205 model, SPF mice, castalagin/IsoPD-1 vs water/IsoPD-1) was “enrichment of Akkermensia, Ruminococcaceae UBA1819, Ruminococcus, Staphylococcus, Escherichia/shigella, Blautia and Alistipes”. For the same compound, the “alpha-diversity (observed genus)” value in test [1] (MCA-205 model, SPF mice, castalagin/isoPD-1, post-castalagin vs baseline) is reported as “increased alpha-diversity”. Further, in test [1] (NR FMT experiment, castalagin groups relative to water groups), the “relative abundance, genera increased” value is on record as “increase of the relative abundance after 16s sequencing analysis of Ruminococcus, Alistepes, Christensenellaceae R7 group, Paraprevotella”. For the same compound, in test [1] (NR FMT experiment, castalagin vs water groups), the “relative abundance of Lachnoclostridium” value was “no difference of Lachnoclostridium was observed”. Besides, the “Ruminococcaceae abundance (qRT-PCR)” value is on record as “not increase” in test [2] (1/4 concentration dose (0.21 mg/kg)), “significantly increased” in test [2] (standard castalagin dose (0.85 mg/kg)) and “significantly increased” in test [2] (three-fold standard castalagin dose (2.55 mg/kg)). The “Ruminococcaceae abundance (qRT-PCR), duplicated experiment” value in test [2] (castalagin 0.85 mg/kg, n=10) is “increase of Ruminococcaceae”.

Source of the values: patent US20230075822A1, “USE OF CASTALAGIN OR ANALOGS THEREOF FOR ANTI-CANCER EFFICACY AND TO INCREASE THE RESPONSE TO IMMUNE CHECKPOINT INHIBITORS” (THE ROYAL INSTITUTION FOR THE ADVANCEMENT OF …, priority 2020, published 2023).
